The values below come from patent US8450494B2, “Disubstituted benzamide derivatives as glucokinase (GK) activators” (Cadila Healthcare Limited, priority 2010, dated 2013).

The target of this experiment is T1, glucokinase (GK) enzyme (Homo sapiens, UniProt P35557).
T1 sequence (P35557 1-465): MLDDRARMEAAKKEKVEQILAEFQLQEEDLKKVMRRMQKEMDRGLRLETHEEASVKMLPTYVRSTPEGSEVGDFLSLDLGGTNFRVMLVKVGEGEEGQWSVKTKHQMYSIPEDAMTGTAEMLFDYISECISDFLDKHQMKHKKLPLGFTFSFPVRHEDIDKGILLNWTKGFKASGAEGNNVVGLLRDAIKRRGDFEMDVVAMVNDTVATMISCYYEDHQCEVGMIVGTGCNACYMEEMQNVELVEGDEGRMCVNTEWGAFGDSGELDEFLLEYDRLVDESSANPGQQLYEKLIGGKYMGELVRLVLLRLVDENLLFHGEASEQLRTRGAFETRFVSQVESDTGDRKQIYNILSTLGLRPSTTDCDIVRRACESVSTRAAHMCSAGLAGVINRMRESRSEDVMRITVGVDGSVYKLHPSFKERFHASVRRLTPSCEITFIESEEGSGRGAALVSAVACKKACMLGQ
Kind of experiment: In-vitro glucokinase (GK) enzyme activation assay (coupled with glucose-6-phosphate dehydrogenase, absorbance at 340). Type of experiment: biochemical. As to conditions: glucose 2.5 mM, ATP 1 mM; for activity at 0.1 µM / activity at 1 µM / activity at 5 µM / activity at 10 µM: read-out: % of GK activity wrt DMSO; for pEC50: GK activation. The procedure: The compound of the invention was incubated with glucokinase (GK) enzyme (0.2 units) for 10 minutes in assay buffer at 26° C. After incubation, addition of glucose-6-phosphate dehydrogenase (2.5 units), ATP (1 mM) and glucose (2.5 mM). Absorbance is measured at 340 nm for 15 minutes with 10 second interval using UV transparent plate in kinetic mode on Spectramax-190 at 30° C.

SMILES strings stand for the structures. pEC50: −log10 of the molar value.

Usually pEC50 stands for the negative decadic logarithm of the EC50, by convention in mol/L. Higher therefore signals a small EC50.

On to `CCOC(=O)c1cnc(NC(=O)c2cc(Oc3ccc(-c4nnc(C)o4)cc3)cc(OC(C)COC)c2)s1` (stereo not drawn) [Example 2.16, Ethyl 2-{3-[(1-methoxypropan-2-yl)oxy]-5-[4-(5-methyl-1,3,4-oxadiazol-2-yl)phenoxy]benzamido}thiazole-5-carboxylate], for which the activity at 0.1 µM (compound 0.1 uM) came out at 101%. Further, where the note is “compound 1 uM”, the activity at 1 µM is 144%. Moreover, where the note is “compound 5 uM”, the activity at 5 µM came out at 201%. For the same compound, for the setting “compound 10 uM”, the activity at 10 µM was 205%.
For `CCc1nnc(-c2ccc(Oc3cc(OC(C)COC)cc(C(=O)Nc4nccs4)c3)cc2)o1` (stereo not drawn) [Example 2.25, 3-(4-(5-Ethyl-1,3,4-oxadiazol-2-yl)phenoxy)-5-((1-methoxypropan-2-yl)oxy)-N-(thiazol-2-yl)benzamide], in that order: 224%, 384%, 439% and 418%.
Consider `C=CCOc1cc(Oc2ccc(-c3nnc(C)o3)cc2)cc(C(=O)Nc2ncc(C)s2)c1` [Example 2.14, 3-(Allyloxy)-5-(4-(5-methyl-1,3,4-oxadiazol-2-yl)phenoxy)-N-(5-methylthiazol-2-yl)benzamide], for which, for the setting “compound 0.1 uM”, the activity at 0.1 µM was found to be 116%. Moreover, the activity at 1 µM (compound 1 uM) was 184%. Also, the activity at 5 µM (compound 5 uM) was 241%. For the same compound, the activity at 10 µM (compound 10 uM) came to 215%.
`COCC(C)Oc1cc(Oc2ccc(-c3nnc(C4CCCC4)o3)cc2)cc(C(=O)Nc2nccs2)c1` (stereo not drawn) [Example 2.31]: the “% of GK activity wrt DMSO” value reads like this: (compound 0.1 uM) 252.3%; (compound 1 uM) 433.6%; (compound 5 uM) 518.5%; (compound 10 uM) 470.8%.
With `Cc1nnc(-c2ccc(Oc3cc(OCC4CCC5(CC5)C4)cc(C(=O)Nc4nccs4)c3)cc2)o1` (stereo not drawn) [Example 1.6, 3-(4-(5-Methyl-1,3,4-oxadiazol-2-yl)phenoxy)-5-(spiro[2.4]heptan-5-ylmethoxy)-N-(thiazol-2-yl)benzamide], for the setting “compound 0.1 uM”, the activity at 0.1 µM was 134%. Further, the activity at 1 µM (compound 1 uM) was 178%. Also, for the setting “compound 5 uM”, the activity at 5 µM was determined as 183%. Also, the activity at 10 µM (compound 10 uM) worked out at 165%.
For the compound `Cc1nnc(-c2ccc(Oc3cc(OCC4CCOCC4)cc(C(=O)Nc4nccs4)c3)cc2)o1` [Example 2.6], the “% of GK activity wrt DMSO” value by setting is: (compound 0.1 uM) 128.2%; (compound 1 uM) 196.4%; (compound 5 uM) 251.8%; (compound 10 uM) 249.3%.
`CCOC(=O)c1csc(NC(=O)c2cc(Oc3ccc(-c4nnc(C)o4)cc3)cc(OC(C)COC)c2)n1` (stereo not drawn) [Example 2.19, Ethyl 2-{3-[(1-methoxypropan-2-yl)oxy]-5-[4-(5-methyl-1,3,4-oxadiazol-2-yl)phenoxy]benzamido}thiazole-4-carboxylate]: for the setting “compound 0.1 uM”, the activity at 0.1 µM stood at 106%. Also, the activity at 1 µM (compound 1 uM) came out at 188%. For the same compound, where the note is “compound 5 uM”, the activity at 5 µM was 318%. Also, for the setting “compound 10 uM”, the activity at 10 µM turned out to be 344%.
For `COC[C@H](C)Oc1cc(Oc2ccc(-c3nnc(C)o3)cc2)cc(C(=O)Nc2ncc(C)s2)c1` [Example 2.11, (S)-3-((1-Methoxypropan-2-yl)oxy)-5-(4-(5-methyl-1,3,4-oxadiazol-2-yl)phenoxy)-N-(5-methylthiazol-2-yl)benzamide], the activity at 0.1 µM (compound 0.1 uM) worked out at 235%. Also, the activity at 1 µM (compound 1 uM) came out at 258%. Moreover, the activity at 5 µM (compound 5 uM) stood at 191%. Moreover, the activity at 10 µM (compound 10 uM) was 243%.
`Cc1nnc(-c2ccc(Oc3cc(OCC(C)C)cc(C(=O)Nc4nccs4)c3)cc2)o1` [Example 2.5, 3-Isobutoxy-5-(4-(5-methyl-1,3,4-oxadiazol-2-yl)phenoxy)-N-(thiazol-2-yl)benzamide]: the pEC50 is 6.99. For the same compound, the activity at 0.1 µM (compound 0.1 uM) worked out at 195%. Also, the activity at 1 µM (compound 1 uM) was 256%. For the same compound, for the setting “compound 5 uM”, the activity at 5 µM is 282%. The activity at 10 µM (compound 10 uM) came out at 278%.
Consider `Cc1csc(NC(=O)c2cc(OCC3CCCCC3)cc(Oc3ccc(-c4nnc(C)o4)cc3)c2)n1` [Example 2.3, 3-(Cyclohexylmethoxy)-5-(4-(5-methyl-1,3,4-oxadiazol-2-yl)phenoxy)-N-(4-methylthiazol-2-yl)benzamide], for which the activity at 0.1 µM (compound 0.1 uM) was found to be 123%. Also, the activity at 1 µM (compound 1 uM) is 137%. Also, under “compound 5 uM”, the activity at 5 µM came to 148%. Where the note is “compound 10 uM”, the activity at 10 µM is 150%.
In the case of `COCC(C)Oc1cc(Oc2ccc(-c3nnc(C)o3)cc2)cc(C(=O)Nc2nc(C(=O)O)cs2)c1` (stereo not drawn) [Example 2.17, 2-{3-[(1-Methoxypropan-2-yl)oxy]-5-[4-(5-methyl-1,3,4-oxadiazol-2-yl)phenoxy]benzamido}thiazole-4-carboxylic acid], the activity at 0.1 µM (compound 0.1 uM) came out at 113%. Further, the activity at 1 µM (compound 1 uM) was found to be 170%. Further, the activity at 5 µM (compound 5 uM) was 306%. Further, the activity at 10 µM (compound 10 uM) amounted to 350%.
Turning to `COCC(C)Oc1cc(Oc2ccc(-c3nnc(CC(C)C)o3)cc2)cc(C(=O)Nc2nccs2)c1` (stereo not drawn) [Example 2.22, 3-(4-(5-Isobutyl-1,3,4-oxadiazol-2-yl)phenoxy)-5-((1-methoxypropan-2-yl)oxy)-N-(thiazol-2-yl)benzamide], the activity at 0.1 µM (compound 0.1 uM) is 153%. Also, the activity at 1 µM (compound 1 uM) stood at 323%. Also, the activity at 5 µM (compound 5 uM) came out at 436%. The activity at 10 µM (compound 10 uM) came to 418%.
Turning to `COCC(C)Oc1cc(Oc2ccc(-c3nnc(C)o3)cc2)cc(C(=O)Nc2ncc(C)s2)c1` (stereo not drawn) [Example 2.9, 3-((1-Methoxypropan-2-yl)oxy)-5-(4-(5-methyl-1,3,4-oxadiazol-2-yl)phenoxy)-N-(5-methylthiazol-2-yl)benzamide], the activity at 0.1 µM (compound 0.1 uM) turned out to be 251%. The activity at 1 µM (compound 1 uM) is 278%. Also, the activity at 5 µM (compound 5 uM) is 283%. For the setting “compound 10 uM”, the activity at 10 µM worked out at 279%.
Regarding `C=CCCOc1cc(Oc2ccc(-c3nnc(C)o3)cc2)cc(C(=O)Nc2nc(C)cs2)c1` [Example 2.12, 3-(But-3-en-1-yloxy)-5-(4-(5-methyl-1,3,4-oxadiazol-2-yl)phenoxy)-N-(4-methylthiazol-2-yl)benzamide], the activity at 0.1 µM (compound 0.1 uM) worked out at 140%. In addition, the activity at 1 µM (compound 1 uM) is 176%. Moreover, for the setting “compound 5 uM”, the activity at 5 µM was found to be 302%. For the same compound, where the note is “compound 10 uM”, the activity at 10 µM was found to be 144%.
With `COC[C@H](C)Oc1cc(Oc2ccc(-c3nnc(C)o3)cc2)cc(C(=O)Nc2nc(C)cs2)c1` [Example 2.20, (S)-3-((1-Methoxypropan-2-yl)oxy)-5-(4-(5-methyl-1,3,4-oxadiazol-2-yl)phenoxy)-N-(4-methylthiazol-2-yl)benzamide], the activity at 0.1 µM (compound 0.1 uM) is 251%. For the same compound, the activity at 1 µM (compound 1 uM) came out at 405%. Further, the activity at 5 µM (compound 5 uM) was determined as 436%. Moreover, the activity at 10 µM (compound 10 uM) was found to be 408%.
`C=CCOc1cc(Oc2ccc(-c3nnc(C)o3)cc2)cc(C(=O)Nc2nccs2)c1` [Example 2.4, 3-(Allyloxy)-5-(4-(5-methyl-1,3,4-oxadiazol-2-yl)phenoxy)-N-(thiazol-2-yl)benzamide] gave a pEC50 of 7.19. Also, for the setting “compound 0.1 uM”, the activity at 0.1 µM turned out to be 240%. The activity at 1 µM (compound 1 uM) was 284%. Also, the activity at 5 µM (compound 5 uM) was 324%. Also, the activity at 10 µM (compound 10 uM) stood at 311%.
